Results from patent US11078540B2, “Methods of diagnosing and treating cancer in patients having or developing resistance to a first cancer therapy” (DANA-FARBER CANCER INSTITUTE, INC., priority 2010, dated 2021).

Experiments:
Format in all cases: cell-based, human
A375 cells [1] = assay: High throughput ORF screening: viability of A375 expressing the kinase ORF collection in 1 μM PLX4720 relative to untreated, normalized to MEK1DD (Cell Titer-Glo); conditions: Homo sapiens, A-375; A375 expressing kinase ORF collection, 1 μM PLX4720; read-out: relative viability, mean of all ORFs, normalized to MEK1DD
Procedure: A375 melanoma cells were plated in 384-well microtiter plates (500 cells per well). The following day, cells were spin-infected with the lentivirally-packaged kinase ORF library in the presence of 8 ug/ml polybrene. 48 hours post-infection, media was replaced with standard growth media (2 replicates), media containing 1 μM PLX4720 (2 replicates, 2 time points) or media containing 10 ug/ml blasticidin (2 replicates). After four days and 6 days, cell growth was assayed using Cell Titer-Glo (Promega) according to manufacturer instructions. The entire experiment was performed twice.
Raw luminescence values were imported into Microsoft Excel. Infection efficiency was determined by the percentage of duplicate-averaged raw luminescence in blasticidin selected cells relative to non-selected cells. ORFs with an infection efficiency of less than 0.70 were excluded from further analysis along with any ORF having a standard deviation of >15,000 raw luminescence units between duplicates. To identify ORFs whose expression affects proliferation, we compared the duplicate-averaged raw luminescence of individual ORFs against the average and standard deviation of all control-treated cells via the z-score, or standard score, below,
[formula] where x=average raw luminescence of a given ORF, μ=the mean raw luminescence of all ORFs and σ=the standard deviation of the raw luminescence of all wells. Any individual ORF with a z-score>+2 or <−2 was annotated as affecting proliferation and removed from final analysis. Differential proliferation was determined by the percentage of duplicate-averaged raw luminescence values in PLX4720 (1 μM) treated cells relative to untreated cells. […] MEK1^DD normalized differential proliferation for each individual ORF was averaged across two duplicate experiments, with two time points for each experiment (day 4 and day 6). A z-score was then generated, as described above for average MEK1^DD normalized differential proliferation. ORFs with a z-score of >2 were considered hits and were followed up in the secondary screen.

A375 cells [2] = assay: Secondary screen: PLX4720 GI50 in A375 expressing candidate resistance ORFs (WST-1); conditions: for GI50: Homo sapiens
Procedure: (§1) ORF-expressing lentivirus was added at a 1:10 dilution in the presence of 8 μg/ml polybrene, and centrifuged at 2250 RPM and 37° C. for 1 h. Following centrifugation, virus-containing media was changed to normal growth media and allowed to incubate for 18 h.

SKMEL28 cells = assay: Secondary screen: PLX4720 GI50 in SKMEL28 expressing candidate resistance ORFs (WST-1); conditions: for GI50: Homo sapiens
Procedure: as §1

B-RAF^V600E cell lines = assay: Pharmacologic growth inhibition assays (WST1 viability, GI50, single-dose studies); conditions: Homo sapiens; OUMS-23, RPMI-7951 and M307 (COT-expressing B-RAF^V600E cell lines)
Procedure: Cultured cells were seeded into 96-well plates (3,000 cells per well) for all melanoma cell lines; 1,500 cells were seeded for A375. Twenty-four hours after seeding, serial dilutions of the relevant compound were prepared in DMSO added to cells, yielding final drug concentrations ranging from 100 μM to […], with the final volume of DMSO not exceeding 1%. Cells were incubated for 96 h following addition of drug. Cell viability was measured using the WST1 viability assay (Roche). Viability was calculated as a percentage of control (untreated cells) after background subtraction. A minimum of six replicates were performed for each cell line and drug combination. Data from growth-inhibition assays were modeled using a nonlinear regression curve fit with a sigmoid dose-response. […] Sigmoid-response curves that crossed the 50% inhibition point at or above 10 μM have GI50 values annotated as >10 μM. For single-dose studies, the identical protocol was followed, using a single dose of indicated drug (1 μM unless otherwise noted).

[3] = system: pERK1/2 (T202/Y204), pMEK1/2 (S217/221); assay: Immunoblots and immunoprecipitations of MAPK pathway proteins in treated cells
Procedure: Cells were washed twice with ice-cold PBS and lysed with 1% NP-40 buffer [150 mM NaCl, 50 mM Tris pH 7.5, 2 mM EDTA pH 8, 25 mM NaF and 1% NP-40] containing 2× protease inhibitors (Roche) and 1× Phosphatase Inhibitor Cocktails I and II (CalBioChem). Lysates were quantified (Bradford assay), normalized, reduced, denatured (95° C.) and resolved by SDS gel electrophoresis on 10% Tris/Glycine gels (Invitrogen). Protein was transferred to PVDF membranes and probed with primary antibodies recognizing pERK1/2 (T202/Y204), pMEK1/2 (S217/221), MEK1/2, MEK1, MEK2, C-RAF (rabbit host), pC-RAF (pS338) (Cell Signaling Technology; 1:1,000), V5-HRP (Invitrogen; (1:5,000), COT (1:500), B-RAF (1:2,000), Actin (1:1,000), Actin-HRP (1:1,000; Santa Cruz)), C-RAF (mouse host; 1:1,000; BD Transduction Labs), Vinculin (Sigma; 1:20,000), AXL (1:500; R&D Systems). After incubation with the appropriate secondary antibody (anti-rabbit, anti-mouse IgG, HRP-linked; 1:1,000 dilution, Cell Signaling Technology or anti-goat IgG, HRP-linked; 1:1,000 dilution; Santa Cruz), proteins were detected using chemiluminescence (Pierce). Immunoprecipitations were performed overnight at 4° C. in 1% NP-40 lysis buffer, as described above, at a concentration of 1 μg/μl total protein using an antibody recognizing C-RAF (1:50; Cell Signaling Technology). Antibody: antigen complexes were bound to Protein A agarose (25 μL, 50% slurry; Pierce) for 2 hrs. at 4° C. Beads were centrifuged and washed three times in lysis buffer and eluted and denatured (95° C.) in 2× reduced sample buffer (Invitrogen). Immunoblots were performed as above. Phospho-protein quantification was performed using NIH Image J.

COT mRNA = assay: Quantitative RT-PCR of COT mRNA in cell lines; conditions: COT-expressing A375 cells, 1 μM PLX4720, 18 h
Procedure: mRNA was extracted from cell lines and fresh-frozen tumors using the RNeasy kit (Qiagen). Total mRNA was used for subsequent reverse transcription using the SuperScript III First-Strand Synthesis SuperMix (Invitrogen) for cell lines and unpaired tumor samples, and the SuperScript VILO cDNA synthesis kit (Invitrogen) for paired frozen tumor samples. 5 μl of the RT reaction was used for quantitative PCR using SYBR Green PCR Master Mix and gene-specific primers, in triplicate, using an ABI 7300 Real Time PCR System. Primers used for detection are as follows: […]

SMILES: CCCS(=O)(=O)Nc1ccc(F)c(C(=O)c2c[nH]c3ncc(Cl)cc23)c1F [PLX4720]
- viability at 1 µM (A375 cells [1]): 44.3%
- Fold Change GI50 (A375 cells [2]; A375, Mock control, relative to MEK1): 0.91 fold
- Fold Change GI50 (A375 cells [2]; A375 expressing AXL ORF, relative to MEK1): 5.98 fold
- Fold Change GI50 (A375 cells [2]; A375 expressing CRKL ORF, relative to MEK1): 59.8 fold
- Fold Change GI50 (A375 cells [2]; A375 expressing ERBB2 ORF, relative to MEK1): 7.95 fold
- Fold Change GI50 (A375 cells [2]; A375 expressing FGR ORF, relative to MEK1): 59.8 fold
- Fold Change GI50 (A375 cells [2]; A375 expressing MAP3K8 ORF, relative to MEK1): 598 fold
- Fold Change GI50 (A375 cells [2]; A375 expressing MEK1, (−) control): 1 fold
- Fold Change GI50 (A375 cells [2]; A375 expressing MEK DD, (+) control, relative to MEK1): 28 fold
- Fold Change GI50 (A375 cells [2]; A375 expressing PAK3 ORF, relative to MEK1): 2.95 fold
- Fold Change GI50 (A375 cells [2]; A375 expressing PRKCE ORF, relative to MEK1): 26.4 fold
- Fold Change GI50 (A375 cells [2]; A375 expressing PRKCH ORF, relative to MEK1): 24.7 fold
- Fold Change GI50 (A375 cells [2]; A375 expressing RAF1 ORF, relative to MEK1): 598 fold
- GI50 (A375 cells [2]; A-375, A375, Mock control): 0.153 µM
- GI50 (A375 cells [2]; A-375, A375 expressing AXL ORF): 1 µM
- GI50 (A375 cells [2]; A-375, A375 expressing CRKL ORF): > 10 µM
- GI50 (A375 cells [2]; A-375, A375 expressing ERBB2 ORF): 1.33 µM
- GI50 (A375 cells [2]; A-375, A375 expressing FGR ORF): > 10 µM
- GI50 (A375 cells [2]; A-375, A375 expressing MAP3K8 ORF): > 100 µM
- GI50 (A375 cells [2]; A-375, A375 expressing MEK1, (−) control): 0.167 µM
- GI50 (A375 cells [2]; A-375, A375 expressing MEK DD, (+) control): 4.8 µM
- GI50 (A375 cells [2]; A-375, A375 expressing PAK3 ORF): 0.493 µM
- GI50 (A375 cells [2]; A-375, A375 expressing PRKCE ORF): 4.41 µM
- GI50 (A375 cells [2]; A-375, A375 expressing PRKCH ORF): 4.14 µM
- GI50 (A375 cells [2]; A-375, A375 expressing RAF1 ORF): ≥ 100 µM
- shift of the PLX4720 GI50 (A375 cells [2]; MAP3K8 (COT/Tpl2) and RAF1 (C-RAF) ORFs, in A375 and SKMEL28): 10-600 fold
- GI50 (SKMEL28 cells; SK-MEL-28, SKMEL28, Mock control): 0.529 µM
- GI50 (SKMEL28 cells; SK-MEL-28, SKMEL28 expressing AXL ORF): 1.18 µM
- GI50 (SKMEL28 cells; SK-MEL-28, SKMEL28 expressing CRKL ORF): 9.7 µM
- GI50 (SKMEL28 cells; SK-MEL-28, SKMEL28 expressing ERBB2 ORF): 1 µM
- GI50 (SKMEL28 cells; SK-MEL-28, SKMEL28 expressing FGR ORF): 5 µM
- GI50 (SKMEL28 cells; SK-MEL-28, SKMEL28 expressing MAP3K8 ORF): > 100 µM
- GI50 (SKMEL28 cells; SK-MEL-28, SKMEL28 expressing MEK1, (−) control): 1 µM
- GI50 (SKMEL28 cells; SK-MEL-28, SKMEL28 expressing MEK DD, (+) control): 8.29 µM
- GI50 (SKMEL28 cells; SK-MEL-28, SKMEL28 expressing PAK3 ORF): 0.904 µM
- GI50 (SKMEL28 cells; SK-MEL-28, SKMEL28 expressing PRKCE ORF): 1.91 µM
- GI50 (SKMEL28 cells; SK-MEL-28, SKMEL28 expressing PRKCH ORF): 2.26 µM
- GI50 (SKMEL28 cells; SK-MEL-28, SKMEL28 expressing RAF1 ORF): ≥ 10 µM
- Fold Change GI50 (SKMEL28 cells; SKMEL28, Mock control, relative to MEK1): 1.89 fold
- Fold Change GI50 (SKMEL28 cells; SKMEL28 expressing AXL ORF, relative to MEK1): 1.18 fold
- Fold Change GI50 (SKMEL28 cells; SKMEL28 expressing CRKL ORF, relative to MEK1): 9.7 fold
- Fold Change GI50 (SKMEL28 cells; SKMEL28 expressing ERBB2 ORF, relative to MEK1): 1 fold
- Fold Change GI50 (SKMEL28 cells; SKMEL28 expressing FGR ORF, relative to MEK1): 5 fold
- Fold Change GI50 (SKMEL28 cells; SKMEL28 expressing MAP3K8 ORF, relative to MEK1): ~100 fold
- Fold Change GI50 (SKMEL28 cells; SKMEL28 expressing MEK1, (−) control): 1 fold
- Fold Change GI50 (SKMEL28 cells; SKMEL28 expressing MEK DD, (+) control, relative to MEK1): 8.29 fold
- Fold Change GI50 (SKMEL28 cells; SKMEL28 expressing PAK3 ORF, relative to MEK1): 0.9041 fold
- Fold Change GI50 (SKMEL28 cells; SKMEL28 expressing PRKCE ORF, relative to MEK1): 1.91 fold
- Fold Change GI50 (SKMEL28 cells; SKMEL28 expressing PRKCH ORF, relative to MEK1): 2.26 fold
- Fold Change GI50 (SKMEL28 cells; SKMEL28 expressing RAF1 ORF, relative to MEK1): ≥10 fold
- GI50 (B-RAF^V600E cell lines): 8 to 10 µM
- endogenous C-RAF:B-RAF heterodimers ([3]; A375 cells, immunoprecipitated C-RAF, 1 μM PLX4720, 18 hr): measurable and inducible
- COT protein ([3]; COT-expressing A375 cells): dose-dependent increase
- ERK phosphorylation in the context of B-RAF inhibition ([3]; OUMS-23, RPMI-7951 and M307): sustained ERK phosphorylation
- phosphorylation of ERK/MEK ([3]; OUMS-23, across a dose range of PLX4720): constitutive phosphorylation
- ectopic COT mRNA levels (COT mRNA): without affecting
